This is an account of results in US4314989A, “Methionine sulfoxide amflioration of acetaminophen toxicity” (priority 1980, dated 1982).

The subject of data set [1] is acetaminophen hepatotoxicity. The settings on record: cited from earlier work; for effect on acetaminophen hepatotoxicity: J. Kelleher et al.
The test system of another data set is man. The conditions noted are these: vitamin C with acetaminophen, cited from earlier work.
In data set [2] the test system is man and experimental animals. The settings on record: cited from earlier work.
Data set [3] concerns mice. The settings on record: administered up to one hour after acute toxic amounts of acetaminophen; cited from earlier work.
Data set [4] has as its system mice. The settings on record: cited from earlier work.
Data set [5] deals with hepatotoxicity after an overdose of acetaminophen. The conditions noted are these: administered within 16 hours after an overdose of acetaminophen; clinical study; cited from earlier work.
The subject of data set [6] is hamsters. The experiment in a line: Enhancement of acetaminophen toxicity by BHA and protection by methionine sulfoxide in hamsters. It is filed as in vivo, hamster. The protocol:
Hamsters weighing about 70 gm. each were divided into five groups of animals. […] All deaths occurred within 48 hours. The survivors all were alive one week later when examined again.
Methionine sulfoxide protects the hamsters against the enhanced acetaminophen toxicity up to dosages of about 200 mg/kg of BHA.

The subject of data set [7] is acetaminophen hepatotoxicity. The data set is described as follows: Effect of BHT and BHA on hepatotoxicity of acetaminophen (general finding). The conditions noted are these: in vivo. The source says: Because the general population consumes large amounts of these chemicals daily, because of their presence in a wide variety of food products, the likelihood of an increased incidence of hepatoxicity in persons taking repeated dosages of acetaminophen is self-evident.

A further data set relates to humans. The settings on record: in vivo; cited from earlier work.
Data set [8] in a line: Enhancement of acetaminophen toxicity by BHT and protection by methionine sulfoxide in hamsters. Type of data set: in vivo, hamster. The settings on record: hamster, in vivo, ip; i.p. mixture of 300 mg/kg acetaminophen and 600 mg/kg BHT; within 24 hours; read-out: deaths. The method, then:
(§1) Hamsters weighing about 70 gm. each were divided into five groups of animals. An aqueous solution (ca. 0.7 ml) of […]. (600 mg/kg) of acetaminophen and an amount of methionine sulfoxide listed in the table below, was administered intraperitoneally to each hamster. All deaths occurred within 48 hours. The survivors all were alive one week later when examined again.
(§2) Following the above procedure, hamsters were given i.p. either 300 mg/kg of acetaminophen or 600 mg/kg BHT.

The subject of data set [9] is hamsters. The description is as above. It is filed as in vivo, hamster. The protocol:
as §1, §2

Data set [10] deals with hamsters. The data set is described as follows: animal or person. Type of data set: in vivo, hamster. The settings on record: for % Deaths: deaths within 48 hours; for hamsters protected from the otherwise lethal dosage of acetaminophen: acetaminophen 600 mg/kg i.p. The method, then: as §1
The test system of a further data set is inbred mice. The conditions noted are these: suggested for humans from studies with inbred mice; cited from earlier work.
Another data set deals with vitamin E deficient rats. The conditions noted are these: cited from earlier work.
[11] abbreviates: i.p. mixture of 300 mg/kg acetaminophen and 100 mg/kg BHA, all hamsters.
The mark [12] stands for this setting: acetaminophen 300 mg/kg i.p. alone.

With `O=C1O[C@H]([C@@H](O)CO)C(O)=C1O` [vitamin C, ascorbic acid], the “protection against the hepatotoxic effects of acetaminophen” value in [1] (Raghuram et al.) is reported as “may provide such protection”. Besides, the “apparent half-life of drug (acetaminophen)” value in the data set on man (by rate of secretion in the urine) is reported as “did not affect the apparent half-life”. Also, in the data set with man, the “excretion rate of acetaminophen sulfate” value was “rapid and pronounced decrease”.
With `NCCS` [cysteamine], the “protection against the hepatotoxicity of acetaminophen” value (shortened to “protection against the hepatotoxicity”) in data set [2] is “varying degrees of protection”.
For `[Se]` [selenium], in data set [2], the “protection against the hepatotoxicity” value is “varying degrees of protection”.
`N[C@@H](CS)C(=O)O` [cysteine]: the “protection against the hepatotoxicity” value in data set [2] is recorded as “varying degrees of protection”.
As for `CSCC[C@H](N)C(=O)O` [methionine], the “protection against the hepatotoxicity” value in data set [2] is recorded as “varying degrees of protection”.
For the compound `C[S+](C)[O-]` [Dimethyl sulfoxide], the “protection against the hepatotoxic effects of acetaminophen” value in the data set on mice [3] is reported as “protect mice against the hepatotoxic effects of acetaminophen”. Moreover, in the data set with mice [4], the “protection against CCl4 hepatotoxicity” value is on record as “inability of DMSO to protect mice”.
With `CC(=O)N[C@@H](CS)C(=O)O` [acetylcysteine], in [5], the prevention of hepatotoxicity entry is “effective in preventing hepatotoxicity”.
As for `CCCOC(=O)c1cc(O)c(O)c(O)c1` [propyl gallate], the “effect on acetaminophen hepatotoxicity” value in data set [1] is reported as “reduce hepatotoxicity”.
Consider dimethylmercaptol, for which the “protection against the hepatotoxicity” value in data set [2] was “varying degrees of protection”.
Turning to `COc1ccc(O)c(C(C)(C)C)c1` [BHA, butylated hydroxyanisole], the deaths result in the data set with hamsters [6] (BHA 100-300 mg/kg i.p. alone) was “no deaths occurred”. Also, the incidence of deaths entry in the data set with hamsters [6] (higher amounts of BHA (than 100 mg/kg) with acetaminophen) is given as “higher incidence of deaths”. Also, in the data set on hamsters [6] (i.p. mixture of 300 mg/kg acetaminophen and 100 mg/kg BHA), the survival entry is “most survive”. Besides, in the data set on hamsters [6] (setting [11]), the coma entry is “go into a coma” and the time to coma was 15 to 20 min. In addition, in [7], the “effect on hepatotoxicity of acetaminophen” value is “profoundly enhance its hepatotoxicity”.
Take `CCO` [alcohol]: in the data set on humans, the “potentiation of acetaminophen hepatotoxicity” value is “markedly potentiate the hepatotoxicity”.
Regarding `Cc1cc(C(C)(C)C)c(O)c(C(C)(C)C)c1` [BHT, butylated hydroxytoluene], the mortality at 24 h in [8] amounted to 100%. Besides, the deaths entry in the data set on hamsters [9] (BHT 600 mg/kg i.p. alone) is reported as “No deaths occurred”. Also, the “enhancement of acetaminophen toxicity” value in the data set with hamsters [9] (i.p. mixture of 300 mg/kg acetaminophen and 600 mg/kg BHT) is on record as “profound enchancement of acetaminophen toxicity”. Also, the “effect on hepatotoxicity of acetaminophen” value in data set [7] is listed as “profoundly enhance its hepatotoxicity”.
For `CC(=O)Nc1ccc(O)cc1` [acetaminophen], in the data set with hamsters [10] (acetaminophen 600 mg/kg i.p. alone (methionine sulfoxide 0), 17 animals), the “% Deaths” value came out at 94%. The deaths result in the data set with hamsters [9] (setting [12]) is listed as “No deaths occurred”; with hamsters [6] (setting [12]), “no deaths occurred”. Moreover, the cataracts result in the data set with inbred mice is reported as “can cause cataracts in humans”. Also, the hepatic necrosis result with humans is “can cause massive hepatic necrosis”.
Regarding `Cc1c(C)c2c(c(C)c1O)CCC(C)(CCCC(C)CCCC(C)CCCC(C)C)O2` (stereo not drawn) [vitamin E, α-tocopherol], in data set [2], the “protection against the hepatotoxicity” value is recorded as “varying degrees of protection”. Besides, the “protection against the hepatotoxic effects of acetaminophen” value with vitamin E deficient rats was “provides such protection”. Also, the “effect on acetaminophen hepatotoxicity” value in [1] was “reduce hepatotoxicity”.
`C[S+]([O-])CC[C@H](N)C(=O)O` (stereo partly drawn) [methionine sulfoxide]: in the data set with hamsters [10] (Mesocricetus auratus, ip), the 50% effective dose (ED50) is approximately 65 mg/kg. In addition, the “% Deaths” value in the data set with hamsters [10] (methionine sulfoxide 50 mg/kg i.p. with acetaminophen 600 mg/kg, 15 animals) is given as 60%; with hamsters [10] (methionine sulfoxide 100 mg/kg i.p. with acetaminophen 600 mg/kg, 17 animals) it was 23.5%; in the data set on hamsters [10] (methionine sulfoxide 200 mg/kg i.p. with acetaminophen 600 mg/kg, 17 animals), 0%; in the data set on hamsters [10] (methionine sulfoxide 400 mg/kg i.p. with acetaminophen 600 mg/kg, 8 animals) it was 0%. Moreover, the “hamsters protected from the otherwise lethal dosage of acetaminophen” value is given as “over 75%” in the data set on hamsters [10] (methionine sulfoxide 100 mg/kg), “protected all of the hamsters” in the data set on hamsters [10] (methionine sulfoxide 200 mg/kg) and “protected all of the hamsters” with hamsters [10] (methionine sulfoxide 400 mg/kg). Also, the deaths result with hamsters [9] (methionine sulfoxide 150 mg/kg concurrently with 300 mg/kg acetaminophen and 600 mg/kg BHT) was “no deaths occurred”. Besides, the “coma produced by the combination of acetaminophen and BHA” value with hamsters [6] (methionine sulfoxide treated, survivors) is “manifested even in the survivors”. Besides, the “dosage of BHA up to which hamsters are protected against the enhanced acetaminophen toxicity” value in the data set on hamsters [6] (methionine sulfoxide with acetaminophen and BHA, value is BHA dosage (up to about)) is “about 200 mg/kg”.
